Experimental data published in patent US20110045102A1, “Cancer chemotherapy compositions comprising PI3K pathway modulators and triptolide” (priority 2005, published 2011).

Assays:
[1] = tested on: OCC1-SEAP tumor; assay: Nude mouse tumor model, intraperitoneal OCC1-SEAP cells, plasma SEAP (Example II); assay type: in vivo; conditions: carboplatin 60 mg/kg every other day for 5 days
From the text: Athymic nude mice (NCR Nu/Nu) were either purchased from Taconic (Germantown, N.Y.) or bred in-house at Washington State University, Pullman, Wash. The OCC1-SEAP cells were collected in Hank's balanced salt solution and counted prior to injection. Treatments were initiated 7 to 10 days following an intraperitoneal inoculation of mice with 1×10^7 OCC1-SEAP cells, as described above, in Example I.
Stock solutions of carboplatin (paraplatin; Bristol-Myers Squibb, Princeton, N.J.) and TPL (Calbiochem, CA), were prepared in sterile filtered PBS and DMSO, respectively. Animals received intraperitoneal injections of either vehicle controlled (PBS containing 4% DMSO), or carboplatin (60 mg/kg), alone, or in combination with TPL (0-1.0 mg/kg), every other day for 5 days. Alternatively, TPL (0.15 mg/kg) was injected every day for 10 days. For these experiments, carboplatin was administered under the same schedule of every other day for 5 days. Some mice were also treated with 40 mg/kg of LY294002 every other day for 5 days, with an intraperitoneal injection in the presence of TPL and carboplatin. Blood samples were collected into capillary tubes from saphenous vein lancings at regular intervals during and following treatments. The capillary tubes were centrifuged and the plasma samples were frozen at −20° C., until the time of SEAP assay. The Washington State University Animal Care and Use Committee approved all procedures.
Blood plasma and cell culture medium samples were assayed for SEAP activity using the Great EscAPe SEAP fluorescence detection kit (Clontech Laboratories, Palo Alto, Calif.), as described above in Example I. Blood plasma samples were diluted 1:100, prior to the assay to bring values within the linear range of the standard curve. The intraassay and interassay coefficients of variation were 2.5% and 18.8%, respectively. In the case of the experiments in which mice were treated with a combination of TPL, LY294002 and carboplatin, there was some variation in the extent of tumor growth in the control mice. In order to better compare response to treatment across experiments, the SEAP assay data between experiments were normalized by dividing each data point by the overall mean of all SEAP measurements from that experiment and up, through day 18. The normalized data then reflect the relative tumor burden of each mouse, compared to others in the experimental group, and can be combined across experiments.

[2] = tested on: OCC1-SEAP cells; assay: OCC1-SEAP cell response to carboplatin in vitro (DNA per well, SEAP in medium); assay type: cell-based, human
Description: OCC1-SEAP-12 cells were grown in Ham's F-12 medium (Gibco) plus 10% calf serum then collected into Hank's balanced salt solution and counted for injection into nude mice. For in vitro assays OCC1-SEAP-12 cells were plated at sequential twofold dilutions and allowed to adhere to culture wells and incubated for 24 hours. Alternatively, OCC1-SEAP-12 cells were grown to 80% confluence in Ham's F-12 medium plus 10% calf serum. Cells were starved for 48 hours in DMEM plus 0.1% BSA and 0.1% calf serum. Experimental treatments were applied for 2 days in DMEM plus 0.1% BSA and 0.1% calf serum. At the end of the treatment period a sample of culture medium was taken for SEAP level determination. DNA assays were performed by discarding the remaining culture medium from over the cells, adding buffer solution, sonicating the cells in each well, and measuring the fluorescence of cell solution into which SYBR Green I fluorescent dye (Molecular Probes, Eugene, Oreg.) had been incorporated as previously described (Parrott and Skinner 1999).
Blood plasma and cell culture medium samples were assayed for SEAP activity using the Great EscAPe SEAP fluorescence detection kit (Clontech Laboratories, Palo Alto, Calif.). SEAP is secreted at a constant rate by transfected tumor cells and distributed throughout the body or into the culture medium. SEAP is heat stable, so any endogenous alkaline phosphatase activity in blood plasma is destroyed by heat treatment of the samples (65° C. for 30 minutes) during the assay. The SEAP enzyme in each sample acts on the substrate 4-methylumbelliferyl phosphate during a 1 hour incubation at room temperature to produce a fluorescent product with excitation and emission peaks at 360 and 449 nm, respectively. A fluorimeter is then used to measure SEAP activity. The intra-assay and inter-assay coefficients of variation were 2.5% and 18.8%, respectively. Blood plasma samples were diluted 1:100 prior to the assay to bring values within the linear range of the standard curve.

[3] = tested on: OCC1-SEAP-12 ovarian cancer cells; assay type: in vivo
Description: Athymic nude mice were obtained and inoculated intraperitoneally with OCC1-SEAP-12 cells as described above in Examples I and II. Animals received injections of either vehicle control (PBS containing 25% DMSO), or carboplatin (60 mg/kg) alone, or in combination with LY294002 (50 mg/kg) every other day for 6 days. Blood samples were collected into capillary tubes from saphenous vein lancings at regular intervals during and following treatments. Capillary tubes were centrifuged, and the plasma samples were frozen (−20° C.), until the time of SEAP assay. The Washington State University Animal Care and Use Committee approved all procedures.
Blood plasma and cell culture medium samples were assayed for SEAP activity using the Great EscAPe SEAP fluorescence detection kit (Clontech Laboratories, Palo Alto, Calif.) as described above in Examples I and II. Blood plasma samples were diluted 1:100 prior to the assay to bring values within the linear range of the standard curve. The intraassay and interassay coefficients of variation were 2.5% and 18.8%, respectively.

SMILES: N.N.O=C([O-])C1(C(=O)[O-])CCC1.[Pt+2] [carboplatin]
- tumor burden vs vehicle control (FIG. 11) ([1]; high dose, short duration: TPL 0.5 mg/kg): no significant difference
- tumor burden as measured by SEAP levels vs vehicle control (FIG. 12) ([1]; low dose, long duration: TPL 0.15 mg/kg every day for 10 days): no significant difference
- normalized SEAP production (SEAP per amount of DNA per well) ([2]; 60 micro g/ml carboplatin for 48 hours vs control): did not change
- SEAP levels in culture medium ([2]; 60 micro g/ml carboplatin for 48 hours, control cells 11.1): 3.9 ng per 25 micro liter
- DNA levels ([2]; 60 micro g/ml carboplatin for 48 hours, control cells 58 micro g/ml): 35 micro g/ml
- drug induced toxicity ([3]; carboplatin 60 mg/kg, alone or with LY294002 50 mg/kg): muscle wasting and became anemic
- abdominal swelling (FIG. 24) ([3]; physical appearance of mice after treatment): displayed abdominal swelling
- tumor size vs vehicle control (FIG. 23) ([3]; single agents: LY294002 50 mg/kg, carboplatin 60 mg/kg): no significant difference
